A short description of this data set: Acute toxicity, LD50 (mouse, i.v.). The class given is in vivo.

Structures can show the parent of a compound that is named as a salt. Where two headings read alike, the source gives them in different places.

Broadly, the LD50 is the dose at which mortality reaches 50%. `O=C(O)C1=C(C[n+]2ccc(CCS(=O)(=O)[O-])cc2)CS[C@@H]2[C@H](NC(=O)[C@H](NC(=O)c3[nH]cnc3C(=O)O)c3ccccc3)C(=O)N12` [dipotassium salt, 7B-[D--(-)-α-(4-carboxyimidazole-5-carboxyamide)-phenylacetamide]-3-(4-β-sulfoethyl-pyridinium)-methyl-3-cepham-4-carboxylic acid] registered an LD50 of 500 to 1000 mg/kg.
For the compound `O=C(O)C1=C(C[n+]2ccc(CCS(=O)(=O)[O-])cc2)CS[C@@H]2[C@H](NC(=O)[C@H](NC(=O)c3[nH]cnc3C(=O)O)c3ccccc3)C(=O)N12` [disodium salt, 7B-[D--(-)-α-(4-carboxyimidazole-5-carboxyamide)-phenylacetamide]-3-(4-β-sulfoethyl-pyridinium)-methyl-3-cepham-4-carboxylic acid, disodium salt], the LD50 entry (disodium salt) is recorded as “more than 3 g/kg”.
